Laboratory results taken from patent publication US20260048051A1, “TREATMENT OF INFLAMMATORY BOWEL DISEASE” (Atomwise Inc., priority 2024, published 2026).

These molecules were tested against T1, TYK2-JH2 (Homo sapiens, UniProt P29597) (assay: TYK2-JH2 HTRF binding assay (ligand efficiency)). Conditions: calculated from binding-assay IC50 (Equation 1).
T1 construct: TYK JH2 enzyme mix (ChemPartner: CP20210818A-BV); purchased ChemPartner CP20210818A-BV
Description: The following example describes the TYK2-JH2 HTRF binding assay used to determine the ligand efficiency of the TYK2 inhibitors.
To calculate ligand efficiency, Equation 1 is applied: […]
in which IC50 comes from the binding assay used to determine compound potency.
TYK JH2 enzyme mix (ChemPartner: CP20210818A-BV), tracer (ChemPartner: CP-0029472-051) and mAb Anti-6HIS Tb cryptate Gold (Cisbio: Cat No. 61HI2TLA) mix were prepared in assay buffer (10 mM MgCl2, 20 mM HEPES pH 7.5, 0.01% Triton X-100, 1 mM DTT). Compounds diluted in DMSO (Final Concentrations 0.1 to 0.000005 [μM]) and enzyme mix (0.5 nM Final Concentration) were added to 384 well plates, briefly centrifuged and incubated at room temperature for 10 minutes. After incubation, tracer mix (Tracer-35 nM final concentration); (MAb Anti-6HIS Tb cryptate Gold-0.5× final)) was added, briefly centrifuged then incubate at room temperature 60 minutes. After incubation, plates were read by Envision TR-FRET (Ex340/Em495/520) protocol (PerkinElmer-Envision 2104 multilabel plate reader).

T1 sequence (P29597 589-875 limits assumed): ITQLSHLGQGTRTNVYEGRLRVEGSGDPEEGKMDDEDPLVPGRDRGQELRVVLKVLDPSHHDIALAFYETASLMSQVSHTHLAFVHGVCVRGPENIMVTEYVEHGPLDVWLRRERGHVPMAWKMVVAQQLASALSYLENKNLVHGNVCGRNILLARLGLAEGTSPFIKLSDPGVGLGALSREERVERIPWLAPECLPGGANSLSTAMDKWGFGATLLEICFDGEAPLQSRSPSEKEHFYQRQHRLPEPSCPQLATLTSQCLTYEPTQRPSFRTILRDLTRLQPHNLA

Structure (SMILES) | Ligand Efficiency
CC(c1ccc(Nc2cc(Nc3ncccc3S(C)(=O)=O)ncn2)nc1)N1CC2(CC(F)C2)C1 (stereo in doubt) [Compound 10, N^4-(5-((1R)-1-(6-fluoro-2-azaspiro[3.3]heptan-2-yl)ethyl)pyridin-2-yl)-N^6-(3-(methylsulfonyl)pyridin-2-yl)pyrimidine-4,6-diamine] | ††† (†††: >0.39)
CC(c1ccc(Nc2cc(Nc3ncccc3S(C)(=O)=O)ncn2)nc1)N1CCCC1 (stereo in doubt) [Compound 15, (R)—N^4-(3-(methylsulfonyl)pyridin-2-yl)-N^6-(5-(1-(pyrrolidin-1-yl)ethyl)pyridin-2-yl)pyrimidine-4,6-diamine] | ††† (†††: >0.39)
CC(c1ccc(Nc2cc(Nc3ncccc3S(C)(=O)=O)ncn2)nc1)N1CC2(CCOCC2)C1 (stereo in doubt) [Compound 31, (R)—N^4-(5-(1-(7-oxa-2-azaspiro[3.5]nonan-2-yl)ethyl)pyridine-2-yl)-N^6-(3-(methylsulfonyl)pyridin-2-yl)pyrimidine-4,6-diamine] | †† (††: 0.37-0.39)
CC(NC1COC1)c1ccc(Nc2cc(Nc3ccccc3S(C)(=O)=O)ncn2)nc1 (stereo in doubt) [Compound 40, (R)—N^4-(2-(methylsulfonyl)phenyl)-N^6-(5-(1-(oxetan-3-ylamino)ethyl)pyridin-2-yl)pyrimidine-4,6-diamine] | ††† (†††: >0.39)
COc1cnc(Nc2cc(Nc3ccc([C@H](C)N4CC5(COC5)C4)cn3)ncn2)c(S(C)(=O)=O)c1 [Compound 3, (S)—N^4-(5-(1-(2-oxa-6-azaspiro[3.3]heptan-6-yl)ethyl)pyridine-2-yl)-N^6-(5-methoxy-3-(methylsulfonyl)pyridin-2-yl)pyrimidine-4,6-diamine] | †† (††: 0.37-0.39)
Cc1nc(Nc2cc(Nc3ncccc3S(C)(=O)=O)ncn2)ccc1NC1(C)COC1 [Compound 6, N^4-(6-methyl-5-((3-methyloxetan-3-yl)amino)pyridin-2-yl)-N^6-(3-(methylsulfonyl)pyridin-2-yl)pyrimidine-4,6-diamine] | ††† (†††: >0.39)
CS(=O)(=O)c1cccnc1Nc1cc(Nc2ccc(N3CCN(C4CC4)CC3)cn2)ncn1 [Compound 7, N^4-(5-(4-cyclopropylpiperazin-1-yl)pyridin-2-yl)-N^6-(3-(methylsulfonyl)pyridin-2-yl)pyrimidine-4,6-diamine] | ††† (†††: >0.39)
C[C@H]1CN(C2CC2)CCN1c1ccc(Nc2cc(Nc3ncccc3S(C)(=O)=O)ncn2)nc1 [Compound 8, (S)—N^4-(5-(4-cyclopropyl-2-methylpiperazin-1-yl)pyridin-2-yl)-N^6-(3-(methylsulfonyl)pyridin-2-yl)pyrimidine-4,6-diamine] | ††† (†††: >0.39)
CS(=O)(=O)c1cccnc1Nc1cc(Nc2ccc3c(n2)CC[C@@H]3N2CC3(COC3)C2)ncn1 [Compound 9, N^4-((5S)-5-(2-oxa-6-azaspiro[3.3]heptan-6-yl)-6,7-dihydro-5H-cyclopenta[b]pyridin-2-yl)-N^6-(3-(methylsulfonyl)pyridin-2-yl)pyrimidine-4,6-diamine] | ††† (†††: >0.39)
CC(C)[C@@H](c1ccc(Nc2cc(Nc3ncccc3S(C)(=O)=O)ncn2)nc1)N1CC2(COC2)C1 [Compound 13, (S)—N^4-(5-(2-methyl-1-(2-oxa-6-azaspiro[3.3]heptan-6-yl)propyl)pyridine-2-yl)-N^6-(3-(methylsulfonyl)pyridin-2-yl)pyrimidine-4,6-diamine] | †† (††: 0.37-0.39)
C[C@@H](c1ccc(Nc2cc(Nc3ncc(Cl)cc3S(C)(=O)=O)ncn2)nc1)N1CC2(COC2)C1 [Compound 14, (S)—N^4-(5-(1-(2-oxa-6-azaspiro[3.3]heptan-6-yl)ethyl)pyridin-2-yl)-N^6-(5-chloro-3-(methylsulfonyl)pyridin-2-yl)pyrimidine-4,6-diamine] | ††† (†††: >0.39)
CS(=O)(=O)c1cccnc1Nc1cc(Nc2ccc([C@@H](N3CC4(COC4)C3)C(F)(F)F)cn2)ncn1 [Compound 16, (R)—N^4-(3-(methylsulfonyl)pyridin-2-yl)-N^6-(5-(2,2,2-trifluoro-1-(2-oxa-6-azaspiro[3.3]heptan-6-yl)ethyl)pyridin-2-yl)pyrimidine-4,6-diamine] | †† (††: 0.37-0.39)
CS(=O)(=O)c1cccnc1Nc1cc(Nc2cccc(C(F)(F)F)n2)ncn1 [Compound 19, N^4-(3-(methylsulfonyl)pyridin-2-yl)-N^6-(6-(trifluoromethyl)pyridin-2-yl)pyrimidine-4,6-diamine] | ††† (†††: >0.39)
C[C@H]1CN(C)CCN1c1ccc(Nc2cc(Nc3ncccc3S(C)(=O)=O)ncn2)nc1 [Compound 20, (S)—N^4-(5-(2,4-dimethylpiperazin-1-yl)pyridin-2-yl)-N^6-(3-(methylsulfonyl)pyridin-2-yl)pyrimidine-4,6-diamine] | ††† (†††: >0.39)
CC1(Nc2ccc(Nc3cc(Nc4ncccc4S(C)(=O)=O)ncn3)nc2)COC1 [Compound 21, N^4-(5-((3-methyloxetan-3-yl)amino)pyridin-2-yl)-N^6-(3-(methylsulfonyl)pyridin-2-yl)pyrimidine-4,6-diamine] | ††† (†††: >0.39)
CC(c1ccc(Nc2cc(Nc3ncccc3S(C)(=O)=O)ncn2)nc1)N1CC(F)C1 (stereo not drawn) [Compound 22, N^4-(5-(1-(3-fluoroazetidin-1-yl)ethyl)pyridin-2-yl)-N^6-(3-(methylsulfonyl)pyridin-2-yl)pyrimidine-4,6-diamine] | ††† (†††: >0.39)
Cc1cc(Nc2cc(Nc3ncccc3S(C)(=O)=O)ncn2)ncc1NC1(C)COC1 [Compound 23, N^4-(4-methyl-5-((3-methyloxetan-3-yl)amino)pyridin-2-yl)-N-(3-(methylsulfonyl)pyridin-2-yl)pyrimidine-4,6-diamine] | ††† (†††: >0.39)
CS(=O)(=O)c1cccnc1Nc1cc(Nc2ccc(N3CCC4(CCO4)CC3)cn2)ncn1 [Compound 24, N^4-(5-(1-oxa-7-azaspiro[3.5]nonan-7-yl)pyridin-2-yl)-N^6-(3-(methylsulfonyl)pyridin-2-yl)pyrimidine-4,6-diamine] | †† (††: 0.37-0.39)
C[C@@H](c1ccc(Nc2cc(Nc3ncccc3S(C)(=O)=O)ncn2)nc1)N1C[C@H]2COC[C@H]2C1 [Compound 25, N^4-(3-(methylsulfonyl)pyridin-2-yl)-N^6-(5-(1-((3aR,6aS)-tetrahydro-1H-furo[3,4-c]pyrrol-5(3H)-yl)ethyl)pyridin-2-yl)pyrimidine-4,6-diamine] | ††† (†††: >0.39)
CC(NC1CCOC1)c1ccc(Nc2cc(Nc3ccccc3S(C)(=O)=O)ncn2)nc1 (stereo not drawn) [Compound 26, N^4-(2-(methylsulfonyl)phenyl)-N^6-(5-(1-(tetrahydrofuran-3-ylamino)ethyl)pyridin-2-yl)pyrimidine-4,6-diamine] | †† (††: 0.37-0.39)
CS(=O)(=O)c1ccccc1Nc1cc(Nc2ccc3c(n2)CCCC3N2CC3(CCOCC3)C2)ncn1 (stereo not drawn) [Compound 27, N^4-(5-(7-oxa-2-azaspiro[3.5]nonan-2-yl)-5,6,7,8-tetrahydroquinolin-2-yl)-N^6-(2-(methylsulfonyl)phenyl)pyrimidine-4,6-diamine] | † (†: < 0.37)
CS(=O)(=O)c1ccccc1Nc1cc(Nc2ccc(CNC3CCOC3)cn2)ncn1 (stereo not drawn) [Compound 28, N^4-(2-(methylsulfonyl)phenyl)-N^6-(5-((tetrahydrofuran-3-ylamino)methyl)pyridin-2-yl)pyrimidine-4,6-diamine] | †† (††: 0.37-0.39)
C[C@@H](c1ccc(Nc2cc(Nc3ncccc3S(C)(=O)=O)ncn2)nc1)N1CCCC12CCOCC2 [Compound 29, (S)—N^4-(5-(1-(8-oxa-1-azaspiro[4.5]decan-1-yl)ethyl)pyridin-2-yl)-N^6-(3-(methylsulfonyl)pyridin-2-yl)pyrimidine-4,6-diamine] | †† (††: 0.37-0.39)
C[C@H](c1ccc(Nc2cc(Nc3ncccc3S(C)(=O)=O)ncn2)nc1)N1CCC2(CCOCC2)C1 [Compound 30, (R)—N^4-(5-(1-(8-oxa-2-azaspiro[4.5]decan-2-yl)ethyl)pyridin-2-yl)-N^6-(3-(methylsulfonyl)pyridin-2-yl)pyrimidine-4,6-diamine] | †† (††: 0.37-0.39)
C[C@@H](c1ccc(Nc2cc(Nc3ncccc3S(C)(=O)=O)ncn2)nc1)N1CC2(CCOC2)C1 [Compound 32, (S)—N^4-(5-(1-(6-oxa-2-azaspiro[3.4]octan-2-yl)ethyl)pyridin-2-yl)-N^6-(3-(methylsulfonyl)pyridin-2-yl)pyrimidine-4,6-diamine] | ††† (†††: >0.39)
CC(C)(c1ccc(Nc2cc(Nc3ncccc3S(C)(=O)=O)ncn2)nc1)N1CC2(CCOCC2)C1 [Compound 33, N^4-(5-(2-(7-oxa-2-azaspiro[3.5]nonan-2-yl)propan-2-yl)pyridin-2-yl)-N^6-(3-(methylsulfonyl)pyridin-2-yl)pyrimidine-4,6-diamine] | †† (††: 0.37-0.39)
CC(c1ccc(Nc2cc(Nc3ncccc3S(C)(=O)=O)ncn2)nc1)N1CC2(CC(C(F)F)C2)C1 (stereo not drawn) [Compound 34, N^4-(5-(1-(6-(difluoromethyl)-2-azaspiro[3.3]heptan-2-yl)ethyl)pyridin-2-yl)-N^6-(3-(methylsulfonyl)pyridin-2-yl)pyrimidine-4,6-diamine] | †† (††: 0.37-0.39)
